According to patent publication US8148425B2, “Pharmaceutical composition containing phloroglucinol and paracetamol” (Promindus (Actions Promotionnelles Dans l'Industrie et le …, priority 2007, dated 2012):
Where “and” joins values, the source holds several entries; their conditions need not be identical. Equal values may be shown once.

Test system: painful spasm caused by intraperitoneal injection of phenylbenzoquinone in mice
Assay: Siegmund test or Writhing test (phenylbenzoquinone-induced painful spasm)
Type: in vivo, mice (male, Swiss strain)
Conditions: esophageal tube, 30 min before phenylbenzoquinone
Description: During said tests, the antispasmodic and analgesic activity of phloroglucinol, of paracetamol, and of phloroglucinol combined with paracetamol was evaluated using the Siegmund test or “Writhing test”. The principle of this test, which is familiar to those skilled in the art, is briefly summarized hereinafter. The intraperitoneal injection of phenylbenzoquinone in mice causes a painful spasm, which can be reduced with antispasmodic substances (causal medication) and analgesic substances (symptomatic medication).
The test was carried out on batches of 10 male mice, of the Swiss strain, having an average weight of 22 g±2. The spasmodic and painful syndrome caused by the intraperitoneal injection of 0.25 ml of the phenylbenzoquinone solution is characterized by hind limb stretching movements and dorso-abdominal musculature twisting movements, which accounted for a period of time of 30 min, starting from 15 min following the administration of the phenylbenzoquinone.
An antispasmodic and analgesic effect manifests itself through a reduction in the number of spasmodic attacks, which is dependent on the dose. For each test, the substance being studied is administered by means of an esophageal tube, 30 min before the phenylbenzoquinone.
For experimental ease, the following were used: • phloroglucinol Lyoc (lyophilizate), and • effervescent paracetamol (tablet); the two substances being perfectly soluble and miscible.
To test the products administered in isolation (prior art), on the one hand, phloroglucinol lyocs (lyophilized systems) were dissolved in distilled water, and on the other hand, effervescent paracetamol tablets were solubilized in distilled water (the solution obtained has a pH of 5).
To test the pharmaceutical compositions of the invention, such phloroglucinol lyocs (lyophilized systems) and such effervescent paracetamol tablets were dissolved and solubilized together. The solution which contains the two active ingredients itself also has a pH of 5.
Given the metabolism in this animal species, the mouse, which is more accelerated than in humans, those skilled in the art, specialists in pharmacology, most commonly use doses which are multiples of the human dose in order to be able to readily objectivize the results.
The results are expressed as percentage of inhibition of the spasm and of the pain relative to control animals which receive only 20 ml/kg of distilled water.

Row | SMILES | % inhibition of the spasm and of the pain relative to control animals (paracetamol 50 mg/kg, mice (repeated in each of four series)) | % inhibition of the spasm and of the pain relative to control animals (phloroglucinol 40 mg/kg, mice) [%] | % inhibition of the spasm and of the pain relative to control animals (phloroglucinol 80 mg/kg, mice) [%] | % inhibition of the spasm and of the pain relative to control animals (phloroglucinol 100 mg/kg, mice) [%] | % inhibition of the spasm and of the pain relative to control animals (phloroglucinol 120 mg/kg, mice) [%]
1 | CC(=O)Nc1ccc(O)cc1 [Paracetamol, 4-acetylaminophenol] | 40% and 39% and 37% | – | – | – | –
2 | Oc1cc(O)cc(O)c1 [Phloroglucinol, 1,3,5-trihydroxy-benzene] | – | 7 | 21 | 27 | 32
